Key:
[1] = system: LiCl-induced conditioned gaping (acute nausea) in rats; assay: Acute nausea: LiCl-induced conditioned gaping (taste reactivity test) in rats; type: in vivo, male Sprague-Dawley rats; details: for LiCl-induced conditioned gaping relative to vehicle: 45 min before conditioning; for Lowest effective dose for suppression of acute nausea-induced conditioned gaping: i.p., rats (FIG. 3)
Excerpt: (§1) Animal procedures complied with the Canadian Council on Animal Care, and the protocols were approved by the Institutional Animal Care Committee at University of Guelph. Animal studies are reported in compliance with the ARRIVE guidelines (Kilkenny et al., 2010; McGrath and Lilley, 2015). A total of 200 näive male Sprague-Dawley rats, obtained from Charles River Laboratories (St Constant, Quebec), were used for all in vivo studies. Rats were individually housed (for acute nausea studies) or pair-housed [for anticipatory nausea and light-dark emergence studies] in home cages made of opaque white plastic (48×26×20 cm), containing bed-o-cob bedding from Harlan Laboratories, Inc. (Mississauga, Ontario), a brown paper towel, and Crinkl'Nest™ from The Andersons, Inc. (Maumee, Ohio). Additionally, in the home cage, rats were provided with a soft white paper container that was 14 cm long and 12 cm in diameter. All rats were subjected to an ambient temperature of 21° C. and a 12/12 h light-dark schedule (lights off at 07:00 h) and maintained on food (Highland Rat Chow [8640]) and water ad libitum. For the acute and anticipatory nausea studies, their body weights ranged from 263 to 329 g on the day of conditioning. For the light-dark emergence studies, their body weights ranged from 320 to 387 g on the day of test.
For the studies of acute nausea (in vivo experiment 1), rats were placed in taste reactivity (Grill and Norgren, 1978) chambers with their cannula attached to an infusion pump (Model KDS100, KD Scientific, Holliston, Mass., USA) for fluid delivery. The taste reactivity chambers were made of clear Plexiglas (22.5×26×20 cm) that sat on a table with a clear glass top. A mirror beneath the chamber at a 45° angle facilitated viewing of the ventral surface of the rat to observe orofacial responses. The conditioning chamber was in a dark room next to a 25 W light source. A video camera (Sony DCR-HC48, Henry's Cameras, Waterloo, ON, Canada) fire-wired into a computer was focused on the mirror and used to record each rat's orofacial reactions during the 2 min taste reactivity test. The video tapes were later scored using ‘The Observer’ (Noldus Information Technology Inc., Leesburg, Va., USA) software.
All rats were surgically implanted with an intraoral cannula according the procedures described by Limebeer et al. (2010). On the day of surgery, the rats were injected with an antibiotic (Derapin: […] s.c.; Pfizer Animal Health, Pfizer Canada Inc, Kirkland, Quebec, Canada) 30 min prior to being anaesthetized with isoflurane (4-5% induction, 1.5% maintenance in O2). Surgical plane anesthesia, as indicated by absence of the hind limb withdrawal reflex and defined by the Canadian Council of Animal Care, was induced before any surgery began, and was adjusted as necessary. Once sufficient anesthesia had been induced, a 2 cm^2 section of skin was shaved at the back of the neck at the level of the scapula. The skin was prepared by cleaning with soap (Bactistat; Ecolab, St. Paul, Minn., USA) and wiping with 70% isopropyl alcohol followed by 7% Betadine solution (Purdue Products L.P., Stamford, Conn., USA). Each rat was then administered a 5 mg·kg^−1 injection (i.p.) of the anti-inflammatory/analgesic drug carprofen (Rimadyl; Pfizer Canada Inc., Kirkland, Quebec, Canada). A thin-walled 15-gauge stainless steel needle was inserted into the shaved area on the neck, directed subcutaneously around the ear and brought out behind the first molar inside the mouth. A 10 cm length of Intra Medic PE90 tubing (Clay Adams Brand; Becton Dickinson and Co., Sparks, Md., USA) with an inner diameter of 0.86 mm and an outer diameter of 1.27 mm was then inserted through the needle after which the needle was removed. Betadine (10%) was applied to the puncture site and three elastic discs (2 cm^2) were placed over the exposed end of the tubing and drawn to the skin at the back of the neck for the purpose of stabilizing the cannula. […]

[2] = system: LiCl-induced conditioned gaping (acute nausea) in rats; details: i.p.; literature (Bolognini et al., 2013; Rock et al.); cited from earlier work
[3] = system: anxiety-like responding in rats; assay: Light-dark box emergence test after foot shock stress (anxiety-like responding); type: in vivo, male Sprague-Dawley rats; details: for Time spent in the light box after foot shock (FS) stress vs No FS: 0.01 μg·kg−1 i.p., 45 min before 5 min test, 24 h after FS
Excerpt: as §1
For the in vivo experiment 3, anxiolytic-like responding was evaluated using the light-dark emergence apparatus, which consisted of an opaque white plastic rectangular box that was divided into two compartments: a small (25 cm wide×20.5 cm long×20.5 cm high) enclosed dark box built of opaque black plastic with a door (8 cm wide×10 cm high) leading to a larger (39.5 cm long×25 cm wide) open lit box. The open lit box was illuminated by one lamp (with a 60 W bulb, 180 lux in the light chamber) positioned 115 cm above the center of the lit box. A video camera was mounted over the top of the light-dark box, and the video tapes were analyzed by the Ethovision software (Noldus Information Technology, Leesburg, Va., USA) for the duration of time spent in the light box for the 5 min test. For the foot shock (FS) session, the rats were placed in sound attenuating MED Associates fear conditioning chambers (St. Albans, Vt., USA). The 6 min FS session consisted of six 0.8 mA foot shocks delivered 1 min apart. Each 0.5 s shock was preceded by a 30 s auditory tone (90 Db, 5000 Hz) as described by Bluett et al. (2014).
The effect of CBDA and HU-580 on anxiety-like responding was evaluated using the light-dark box emergence test following either foot shock stress or no foot shock (No FS) stress. […]

[4] = system: anxiety-like responding in rats; details: i.p.; literature (Rock et al., 2017); cited from earlier work

SMILES | LiCl-induced conditioned gaping relative to vehicle ([1]; 0.1 μg·kg−1 i.p.) | LiCl-induced conditioned gaping relative to vehicle ([1]; 1 μg·kg−1 i.p., P<0.05) | Lowest effective dose for suppression of acute nausea-induced conditioned gaping [1] [µg/kg] | Dose as low as which anti-nausea effects are induced (vomiting in Suncus murinus, conditioned gaping in rats) [2] [µg/kg] | Time spent in the light box after foot shock (FS) stress vs No FS [3] | Doses as low as which anxiolytic-like effects are produced under conditions of high stress [4] [µg/kg] | Suppressive effect on acute nausea after 5-HT1A antagonist pretreatment ([1]; 0.1 μg·kg−1 HU-580 i.p., WAY100635 0.1 mg·kg−1 15 min before) | Time spent in the light box after foot shock (FS) stress vs No FS, with 5-HT1A antagonist pretreatment ([3]; WAY100635 15 min before 0.01 μg·kg−1 HU-580 i.p., P=0.05)
C=C(C)[C@@H]1CCC(C)=C[C@H]1c1c(O)cc(CCCCC)c(C(=O)O)c1O [CBDA, Cannabidiolic acid] | subthreshold | reduced LiCl-induced gaping responses relative to vehicle | 1 | 1 | spent less time in the light box following FS stress than following No FS stress | 0.1 |  | 
C=C(C)[C@@H]1CCC(C)=C[C@H]1c1c(O)cc(CCCCC)c(C(=O)OC)c1O [HU-580, Cannabidiolic Acid Methyl Ester] | reduced LiCl-induced conditioned gaping behavior relative to vehicle | reduced LiCl-induced gaping responses relative to vehicle | 0.1 |  | reversed the effect of FS |  | blocked by WAY100635 | spent less time in the light box following FS stress than following No FS stress

Reference: patent publication US11440870B2, “Cannabidiolic acid esters compositions and uses thereof” (Yissum Research Development Company of the Hebrew …, priority 2017, dated 2022)
